Assay results published in US8426174B2, “Method for the production of 2-butanol” (Butamax(TM) Advanced Biofuels LLC, priority 2007, dated 2013).
Where two headings read alike, the source gives them in different places.

Tests used:
E. coli strain MG1655 = system: E. coli strain MG1655
Description: A similar study was done with log-phase cultures of E. coli grown in a defined medium. E. coli strain MG1655 was allowed to grow overnight in MOPS 0.2% glucose medium (Teknova, Half Moon Bay, Calif.) at 42° C. or 28° C. The following day, the cultures were diluted into fresh medium and allowed to grow at the same temperature until in the log phase of growth. […] To these were added 10 μL of the log phase cultures and the tubes were immediately placed in shaking incubators at 42° C. or 28° C. or left on ice for 30 min. […] Then 5 μL of the undiluted treated cultures were spotted on LB agar plates. Subsequent 10-fold serial dilutions of 10^−3, 10^−4, 10^−5 and 10^−6 of the exposed cultures were done by serial pipetting of 20 μL, starting with the 10^−2 dilution cultures, into 180 μL of LB medium in the microplate, using a multi-channel pipette. Prior to each transfer, the cultures were mixed by pipetting up and down six times. Each dilution (5 μL) was spotted onto an LB plate using a multi-channel pipette and allowed to soak into the plate. The plates were inverted and incubated overnight at 37° C. […] Survival of 0% was recorded when no colonies in the spots of the undiluted or any of the serial dilutions were observed.

[1] = system: Lactobacillus plantarum PN0512; experiment: Growth of L. plantarum PN0512 in the presence of butanols at different temperatures; format: cell-based; design: key to Growth at 37° C. / Growth at 30° C. / Growth at 25° C.: +: growth observed as an increase in OD600.; −: no growth observed, i.e. no change in OD600
Description: Tolerance levels of bacterial strain Lactobacillus plantarum PN0512 (ATCC # PTA-7727) were determined at 25° C., 30° C. and 37° C. as follows. The strain was cultured in S30L medium (i.e., 10 mM ammonium sulfate, 5 mM potassium phosphate buffer, pH 7.0, 50 mM MOPS, pH 7.0, 2 mM MgCl2, 0.7 mM CaCl2, 50 μM MnCl2, 1 μM FeCl3, 1 μM ZnCl2, 1.72 μM CuCl2, 2.53 μM CoCl2, 2.42 μM Na2MoO4, 2 μM thiamine hydrochloride, 10 mM glucose, and 0.2% yeast extract). An overnight culture in the absence of any test compound was started in 15 mL of the S30L medium in a 150 mL flask, with incubation at 37° C. in a shaking water bath. The next morning, the overnight culture was diluted into three 500 mL flasks containing 150 mL of fresh medium to an initial OD600 of about 0.08. Each flask was incubated in a shaking water bath, one each at 25° C., 30° C. and 37° C. Each large culture was allowed to acclimate at the test temperature for at least 0.5 h. […] Growth was followed by measuring OD600 for six hours after addition of the compounds.

[2] = 1.5 % (w/v) 1-butanol, grown at 28° C.
[3] = 1.5 % (w/v) 1-butanol, grown at 42° C.
[4] = 2.0 % (w/v) 1-butanol, grown at 28° C.
[5] = 2.0 % (w/v) 1-butanol, grown at 42° C.
[6] = 3.0 % (w/v) 1-butanol, grown at 28° C.
[7] = 3.0 % (w/v) 1-butanol, grown at 42° C.
[8] = 4.0 % (w/v) 1-butanol, grown at 28° C.
[9] = 4.0 % (w/v) 1-butanol, grown at 42° C.
[10] = […] (w/v) 1-butanol, grown at 42° C.

## 1-butanol
E. coli strain MG1655; 1.0 % (w/v) 1-butanol, grown at 28° C.
  % survival after 30 min exposure at 42° C.: 100%
E. coli strain MG1655; 1.0 % (w/v) 1-butanol, grown at 42° C.
  % survival after 30 min exposure at 42° C.: 100%
E. coli strain MG1655; [2]
  % survival after 30 min exposure at 28° C.: 100%
  % survival after 30 min exposure at 42° C.: 0%
E. coli strain MG1655; [3]
  % survival after 30 min exposure at 28° C.: 100%
  % survival after 30 min exposure at 42° C.: 0%
E. coli strain MG1655; [4]
  % survival after 30 min exposure at 28° C.: 100%
  % survival after 30 min exposure at 42° C.: 0%
E. coli strain MG1655; [5]
  % survival after 30 min exposure at 28° C.: 100%
  % survival after 30 min exposure at 42° C.: 0%
E. coli strain MG1655; [6]
  % survival after 30 min exposure at 28° C.: 0%
  % survival after 30 min exposure at 42° C.: 0%
E. coli strain MG1655; 3.0 % (w/v) 1-butanol, grown at 29° C.
  % survival after 30 min exposure at 0° C.: 100%
E. coli strain MG1655; [7]
  % survival after 30 min exposure at 0° C.: 100%
  % survival after 30 min exposure at 28° C.: 0%
  % survival after 30 min exposure at 42° C.: 0%
E. coli strain MG1655; [8]
  % survival after 30 min exposure at 28° C.: 0%
  % survival after 30 min exposure at 42° C.: 0%
E. coli strain MG1655; 4.0 % (w/v) 1-butanol, grown at 29° C.
  % survival after 30 min exposure at 0° C.: 100%
E. coli strain MG1655; [9]
  % survival after 30 min exposure at 0° C.: 100%
  % survival after 30 min exposure at 28° C.: 0.001%
  % survival after 30 min exposure at 42° C.: 0%
E. coli strain MG1655; 5.0 % (w/v) 1-butanol, grown at 29° C.
  % survival after 30 min exposure at 0° C.: 50%
E. coli strain MG1655; 5.0 % (w/v) 1-butanol, grown at 42° C.
  % survival after 30 min exposure at 0° C.: 10%
E. coli strain MG1655; 6.0 % (w/v) 1-butanol, grown at 29° C.
  % survival after 30 min exposure at 0° C.: 1%
E. coli strain MG1655; 6.0 % (w/v) 1-butanol, grown at 42° C.
  % survival after 30 min exposure at 0° C.: 1%
E. coli strain MG1655; […] (w/v) 1-butanol, grown at 28° C.
  % survival after 30 min exposure at 42° C.: 0%
E. coli strain MG1655; […] (w/v) 1-butanol, grown at 29° C.
  % survival after 30 min exposure at 0° C.: 100%
E. coli strain MG1655; [10]
  % survival after 30 min exposure at 0° C.: 100%
  % survival after 30 min exposure at 42° C.: 0%
[1]; 1.0 % w/v 1-butanol
  Growth at 37° C.: +
[1]; 1.2 % w/v 1-butanol
  Growth at 37° C.: +
[1]; 1.4 % w/v 1-butanol
  Growth at 37° C.: +
[1]; 1.5 % w/v 1-butanol
  Growth at 25° C.: +
  Growth at 30° C.: +
  Growth at 37° C.: +
[1]; 1.6 % w/v 1-butanol
  Growth at 37° C.: +
[1]; 1.8 % w/v 1-butanol
  Growth at 37° C.: +
[1]; 2.0 % w/v 1-butanol
  Growth at 25° C.: +
  Growth at 30° C.: +
  Growth at 37° C.: +
[1]; 2.1 % w/v 1-butanol
  Growth at 37° C.: +
[1]; 2.2 % w/v 1-butanol
  Growth at 37° C.: +
[1]; 2.3 % w/v 1-butanol
  Growth at 37° C.: +
[1]; 2.4 % w/v 1-butanol
  Growth at 25° C.: +
  Growth at 30° C.: +
  Growth at 37° C.: −^2
[1]; 2.7 % w/v 1-butanol
  Growth at 30° C.: +
  Growth at 37° C.: −
[1]; 2.9 % w/v 1-butanol
  Growth at 25° C.: +
  Growth at 30° C.: −
  Growth at 37° C.: −
[1]; 3.1 % w/v 1-butanol
  Growth at 25° C.: +
  Growth at 30° C.: −
  Growth at 37° C.: −
[1]; 3.2 % w/v 1-butanol
  Growth at 25° C.: −
  Growth at 30° C.: −
[1]; 3.3 % w/v 1-butanol
  Growth at 25° C.: −
[1]; 3.4 % w/v 1-butanol
  Growth at 25° C.: −
  Growth at 30° C.: −
[1]; 25° C.
  concentration in which growth was observed: 3.1%
[1]; 30° C.
  concentration in which growth was not observed: 2.9%
  concentration in which growth was observed: 2.7%
[1]; 37° C.
  concentration in which growth was not observed: 2.4%
  concentration in which growth was observed: 2.3%
[1]; […] w/v 1-butanol
  Growth at 37° C.: −
